The supplement of paper PMC8671470

Key:
Settings in all cases: 72 h
[1] = tested on: BV-173
Procedure, shortened: (§1)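 Fifteen myeloid leukaemia cell lines were seeded in RPMI 1640 at a density titrated to the linear growth range. Each line went into 384-well plates with compounds acoustically pre-printed at five tenfold doses from 1 to 10,000 nM, in duplicate, and was incubated for 72 h at 37 °C with 5% CO2. Luminescent ATP viability was normalised to vehicle and to a positive control at 10 µM. The IC50 came from four-parameter log-logistic dose–response fits.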

[2] = tested on: HEL
Procedure, shortened: as §1

[3] = tested on: HL-60
Procedure, shortened: as §1

[4] = tested on: K-562
Procedure, shortened: as §1

[5] = tested on: KCL-22
Procedure, shortened: as §1

[6] = tested on: KG-1
Procedure, shortened: as §1

[7] = tested on: KU-812
Procedure, shortened: as §1

[8] = tested on: LAMA-84
Procedure, shortened: as §1

[9] = tested on: ML-2
Procedure, shortened: as §1

[10] = tested on: MOLM-13
Procedure, shortened: as §1

[11] = tested on: MV4-11
Procedure, shortened: as §1

[12] = tested on: Mono-Mac-6
Procedure, shortened: as §1

[13] = tested on: NOMO-1
Procedure, shortened: as §1

[14] = tested on: SHI-1
Procedure, shortened: as §1

[15] = tested on: THP-1
Procedure, shortened: as §1

[16] = tested on: HL-60; assay: cell viability (% survival relative to DMSO control); higher = less cytotoxic
Procedure, shortened: (§2)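 HL-60 cells grown in RPMI 1640 with 10% FBS were rescreened against the full library in 384-well plates, in duplicate, at five tenfold concentrations from 1 to 10,000 nM, alongside DMSO or 100 nM of one of three metabolic inhibitors for 72 h at 37 °C, 5% CO2. Reference wells contained DMSO or 10 μM proteasome inhibitor. Viability was read with CellTiter-Glo and normalised to these reference wells, and where reported, area under the curve was taken from four-parameter log-logistic fits in drc and PharmacoGx.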

[17] = tested on: BV-173; assay: cell viability (% survival relative to DMSO control, bortezomib = 0%); higher = less cytotoxic
Procedure, shortened: (§3)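 Fifteen myeloid leukaemia cell lines (10 AML, 5 CML) were seeded at a density titrated to the linear growth range into 384-well plates pre-printed with compounds at 1, 10, 100, 1000 or 10000 nM in duplicate. Plates were incubated for 72 h at 37 °C with 5% CO2. Viability was then read by CellTiter-Glo luminescence. Each value is percent survival averaged over the duplicates, with vehicle set to 100% and a 10 µM positive control to 0%.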

[18] = tested on: HEL; assay: as above
Procedure, shortened: as §3

[19] = tested on: HL-60; assay: as above
Procedure, shortened: as §3

[20] = tested on: K-562; assay: as above
Procedure, shortened: as §3

[21] = tested on: KCL-22; assay: as above
Procedure, shortened: as §3

[22] = tested on: KG-1; assay: as above
Procedure, shortened: as §3

[23] = tested on: LAMA-84; assay: as above
Procedure, shortened: as §3

[24] = tested on: ML-2; assay: as above
Procedure, shortened: as §3

[25] = tested on: MOLM-13; assay: as above
Procedure, shortened: as §3

[26] = tested on: MV4-11; assay: as above
Procedure, shortened: as §3

[27] = tested on: SHI-1; assay: as above
Procedure, shortened: as §3

[28] = tested on: HL-60; assay: area under dose-response curve (viability, 1 nM-10 uM) (fraction (0-1)); higher = more sensitive
Procedure, shortened: as §2

O=C(Cc1cccc(OC(F)(F)F)c1)Nc1ccc(CCCCc2nnc(NC(=O)Cc3ccccn3)s2)nn1 [CB-839]
Settings	IC50 (cell viability) [µM]
[1]	0.118
[2]	> 10
[3]	0.637
[4]	> 10
[5]	0.822
[6]	0.638
[7]	> 10
[8]	9.93
[9]	> 10
[10]	> 10
[11]	0.619
[12]	> 10
[13]	> 10
[14]	> 10
[15]	> 10

cell viability [%], [16]
Settings	0.001 µM	0.01 µM	0.1 µM	1 µM	10 µM
co-treatment: AZD3965 100 nM	105	103.64	103	93.2	71.4
co-treatment: DMSO vehicle	97.2	102	97.9	93.6	88.7
co-treatment: GSK2194069 100 nM	103	94.8	97.4	94.1	77.9
co-treatment: pictilisib 100 nM	100.52	87.5	78.3	71.08	54

Settings	area under dose-response curve, co-treatment: AZD3965 100 nM	area under dose-response curve, co-treatment: DMSO vehicle	area under dose-response curve, co-treatment: GSK2194069 100 nM	area under dose-response curve, co-treatment: pictilisib 100 nM	cell viability, 1 nM [%]	cell viability, 10 nM [%]	cell viability, 100 nM [%]	cell viability, 1000 nM [%]	cell viability, 10000 nM [%]
[17]	–	–	–	–	133	82.2	53.7	59.8	18.5
[18]	–	–	–	–	117	85.6	99.3	73.7	64.8
[19]	–	–	–	–	73.4	114	85.6	40.6	50.2
[20]	–	–	–	–	145	105	85.3	86	77.7
[21]	–	–	–	–	116	90.4	79.5	55.4	43.8
[22]	–	–	–	–	98.4	81.7	80.1	43	45.4
[23]	–	–	–	–	116	85.8	66.5	66.3	58.4
[24]	–	–	–	–	111	89.8	94.3	91.4	89.9
[25]	–	–	–	–	123	102	116	59.8	73.7
[26]	–	–	–	–	108	86	71.2	48.1	51.2
[27]	–	–	–	–	109	103	99.7	74.9	68.4
[28]	0.0553	< 0.0301	0.0569	0.0991	–	–	–	–	–

O=NN(CCCl)C(=O)NCCCl [Carmustine]
Settings	IC50 (cell viability) [µM]
[1]	> 10
[2]	> 10
[3]	> 10
[4]	> 10
[5]	> 10
[6]	> 10
[7]	> 10
[8]	> 10
[9]	> 10
[10]	> 10
[11]	> 10
[12]	> 10
[13]	> 10
[14]	> 10
[15]	> 10

cell viability [%], [16]
Settings	0.001 µM	0.01 µM	0.1 µM	1 µM	10 µM
co-treatment: AZD3965 100 nM	95.3	95	99.5	98.8	100.8
co-treatment: DMSO vehicle	96.8	102	100.48	97.8	105
co-treatment: GSK2194069 100 nM	89.9	97.4	98.9	97.5	104
co-treatment: pictilisib 100 nM	86.1	83.1	110	93.7	118

Settings	area under dose-response curve, co-treatment: AZD3965 100 nM	area under dose-response curve, co-treatment: DMSO vehicle	area under dose-response curve, co-treatment: GSK2194069 100 nM	area under dose-response curve, co-treatment: pictilisib 100 nM	cell viability, 1 nM [%]	cell viability, 10 nM [%]	cell viability, 100 nM [%]	cell viability, 1000 nM [%]	cell viability, 10000 nM [%]
[17]	–	–	–	–	102	120	105	95.3	78.5
[18]	–	–	–	–	98.3	114	111	103	101
[19]	–	–	–	–	98.8	101	98.1	97.8	101
[20]	–	–	–	–	95.1	123	75.8	111	101
[21]	–	–	–	–	83.1	122	104	88.8	97.4
[22]	–	–	–	–	110	114	108	102	97.5
[23]	–	–	–	–	98.7	93.1	105	92.9	99.3
[24]	–	–	–	–	104	122	106	96	106
[25]	–	–	–	–	97.6	106	98.2	106	101
[26]	–	–	–	–	96.3	104	103	106	83.4
[27]	–	–	–	–	87	109	97.6	128	104
[28]	< 0.0301	< 0.0301	< 0.0301	< 0.0301	–	–	–	–	–
